Twelve compounds from US20260083708A1, “IL-17 MODULATORS AND USES THEREOF” (NNOCARE PHARMA INC., priority 2024, published 2026) can be followed below.

The subject of assay [1] is IL-17AF-induced IL-17 signaling pathway. Put plainly: Inhibition of IL-17AF-induced IL-17 signaling pathway. It counts as cell-based. The conditions noted are these: Homo sapiens; IL-17AF used instead of IL-17AA; read-out: IC50 for Inhibiting IL-AF Signaling. The text has this:
(§1) Interleukin-17 (IL-17) reporter cell line (HEK-Blue IL-17, InvivoGen, Catalog Number hkb-i117) is created by genetically engineering human IL-17RA/IL-17RC heterodimeric receptor and downstream adapter protein ACT1 into human embryonic kidney 293 cells (HEK293). These cells also express secreted embryonic alkaline phosphatase (SEAP) reporter gene induced by NF-κB and AP-1. Therefore, IL-17AA can activate NF-κB and AP-1 signaling pathways inside the cells by binding to IL-17RA/RC on cell membrane, leading to expression of SEAP protein. After a colorimetric reaction between SEAP protein and Quanti-Blue solution, the absorbance at 620 nm is measured using a microplate reader (BioTek H1M, Agilent, Catalog Number SH1M-SN) to determine IL-17AA-activated signaling pathway.
(§2) In the experiment, HEK-Blue IL-17 cells were cultured at 37° C. under 5% CO2 conditions using the recommended medium from InvivoGen's instruction. Compounds were serially diluted starting from 10 μM. 4 μL of each compound solution was added to 32 μL of cells (10,000 cells) at 37° C. for 1 hour. After pre-incubation, 4 μL of IL-17AA with a final concentration of 2.5 ng/mL (Sino Biological, Catalog Number 12047-HNAS) was added to the cells, and incubation was continued for additional 20 hours. After incubation, 5 μL of cell culture supernatant was added to 45 μL of Quanti-Blue for the colorimetric reaction. The group without tested compound had the highest absorbance at 620 nm, and the group without IL-17AA had the lowest absorbance at 620 nm.
(§3) Therefore, the percentage of inhibition of tested compound was calculated as
(§4) Experimental results were analyzed using XLfit (IDBS) for 4-parameter nonlinear fitting analysis to provide the IC50 value for each tested compound (Table 1).
Example 44. Inhibition of IL-17AF-Induced IL-17 Signaling Pathway
The same experimental procedure to Example […] was followed where IL-17AF was used instead of IL-17AA.

The test system of assay [2] is IL-17AA-induced IL-17 signaling pathway. As to the kind of experiment: Inhibition of IL-17AA-induced IL-17 signaling pathway in HEK-Blue IL-17 reporter cells (SEAP). It counts as cell-based. The conditions noted are these: Homo sapiens; HEK-Blue IL-17 cells, IL-17AA 2.5 ng/mL, 20 hours; read-out: IC50 for Inhibiting IL-AA Signaling.
Description: Example 43. Inhibition of IL-17AA-Induced IL-17 Signaling Pathway
as §1, §2, §3, §4

The next assay deals with T1, IL-17AA and IL-17RA (Homo sapiens, UniProt Q16552).
T1 construct: purchased Sino Biological 12047-H07B (IL-17AA); 10895-H02H (IL-17RA)
T1 sequence (Q16552 24-155): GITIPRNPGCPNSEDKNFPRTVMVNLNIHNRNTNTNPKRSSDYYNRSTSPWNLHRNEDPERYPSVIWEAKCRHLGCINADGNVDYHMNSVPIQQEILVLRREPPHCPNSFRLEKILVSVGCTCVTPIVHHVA
As to the kind of experiment: Competitive inhibition of human IL-17AA and IL-17RA binding (HTRF). The conditions noted are these: recombinant IL-17AA (His-tag) and IL-17RA (hFc-tag); read-out: IC50 for Inhibiting IL-AA/IL-RA Binding. Here is the method:
Example 42. Competitive Inhibition of Human IL-17AA and IL-17RA Binding
Recombinant IL-17AA (His-tag, Catalog Number 12047-H07B) and IL-17RA (hFc-tag, Catalog Number 10895-H02H) were purchased from Sino Biological. In the experiment, 10 μL of IL-17AA (1 nM) or IL-17RA (1 nM) was added to 10 μL of anti-6His-Tb (0.4 nM, Revvity, Catalog Number 61HISTLF) or anti-human IgG-d2 (1 μg/mL, anti-human IgG-d2, Revvity, Catalog Number 61HFCDAF), respectively and incubated at room temperature for 1 hour. Compounds were serially diluted starting from 10 μM. 5 μL of each compound solution was incubated with 5 μL of a mixture of IL-17AA and anti-6His-Tb at room temperature for 2 hours. After pre-incubation, to which was added 10 μL of a mixture of IL-17RA and anti-human IgG-d2, and incubation was continued for additional 20 minutes. Subsequently, a microplate reader (Envision, PerkinElmer) was used to detect fluorescence intensity at 615 nm and 665 nm, and the ratio of intensity thereof indicates the degree of IL-17AA and IL-17RA interaction. The ratio of intensity in the absence of tested compound was the highest value of binding between IL-17AA and IL-17RA, and the ratio of intensity in the absence of IL-17AA was the lowest value.
as §3
Experimental results were analyzed using XLfit (IDBS) for 4-parameter nonlinear fitting analysis, to provide the IC50 value for each tested compound (Table 1).

With `CCc1nonc1C(=O)N[C@H](C(=O)Nc1ccc([C@H](C)[C@@H](NC(=O)COC)c2nncn2CC2CC2)cc1F)C(C1CC1)C1CC1` [Compound 14, N-((S)-1,1-dicyclopropyl-3-((4-((1R,2S)-1-(4-(cyclopropylmethyl)-4H-1,2,4-triazol-3-yl)-1-(2-methoxyacetamido)propan-2-yl)-2-fluorophenyl)amino)-3-oxopropan-2-yl)-4-ethyl-1,2,5-oxadiazole-3-carboxamide], the IC50 in assay [1] was 0.009 µM; in assay [2] it was 0.0023 µM; on IL-17AA and IL-17RA it was 0.0029 µM.

In the case of `CCn1nccc1C(=O)N[C@H](C(=O)Nc1ccc([C@H](C)[C@@H](NC(=O)N(C)C2CC2)c2nncn2CC2CC2)cc1F)C(C1CC1)C1CC1` [Compound 21, N-((S)-1,1-dicyclopropyl-3-((4-((1R,2S)-1-(3-cyclopropyl-3-methylureido)-1-(4-(cyclopropylmethyl)-4H-1,2,4-triazol-3-yl)propan-2-yl)-2-fluorophenyl)amino)-3-oxopropan-2-yl)-1-ethyl-1H-pyrazole-5-carboxamide], the IC50 in assay [1] worked out at 0.0037 µM; in assay [2] it was 0.0018 µM; at IL-17AA and IL-17RA it was 0.0022 µM.

As to `COCC(=O)N[C@@H](c1nncn1CC1CC1)[C@@H](C)c1ccc(NC(=O)[C@@H](NC(=O)COCC2CC2)C(C2CC2)C2CC2)c(F)c1` [Compound 15, (S)-3,3-dicyclopropyl-2-(2-(cyclopropylmethoxy)acetamido)-N-(4-((1R,2S)-1-(4-(cyclopropylmethyl)-4H-1,2,4-triazol-3-yl)-1-(2-methoxyacetamido)propan-2-yl)-2-fluorophenyl)propanamide], the IC50 in assay [1] worked out at 2.13 µM; in assay [2], 1.11 µM; on IL-17AA and IL-17RA, 0.172 µM.

In the case of `CCn1ncnc1C(=O)N[C@H](C(=O)Nc1ccc([C@H](C)[C@@H](NC(=O)COC)c2ncnn2CC2CC2)cc1F)C(C1CC1)C1CC1` [Compound 50, N-((S)-1,1-dicyclopropyl-3-((4-((1R,2S)-1-(1-(cyclopropylmethyl)-1H-1,2,4-triazol-5-yl)-1-(2-methoxyacetamido)propan-2-yl)-2-fluorophenyl)amino)-3-oxopropan-2-yl)-1-ethyl-1H-1,2,4-triazole-5-carboxamide], the IC50 in assay [1] came out at 0.026 µM; in assay [2] it was 0.0079 µM; at IL-17AA and IL-17RA, 0.0056 µM.

As to `CCn1nccc1C(=O)N[C@H](C(=O)Nc1ccc([C@H](C)[C@@H](NC(=O)COC)c2ncnn2CC2CC2)cc1F)C(C1CC1)C1CC1` [Compound 19, N-((S)-1,1-dicyclopropyl-3-((4-((1R,2S)-1-(1-(cyclopropylmethyl)-1H-1,2,4-triazol-5-yl)-1-(2-methoxyacetamido)propan-2-yl)-2-fluorophenyl)amino)-3-oxopropan-2-yl)-1-ethyl-1H-pyrazole-5-carboxamide], the IC50 in assay [1] was determined as 0.004 µM; in assay [2], 0.0026 µM; at IL-17AA and IL-17RA, 0.0045 µM.

In the case of `Cc1nonc1C(=O)N[C@H](C(=O)Nc1ccc([C@H](C)[C@@H](NC(=O)COC2CN(C)C2)c2ncnn2CC2CC2)cc1F)C(C1CC1)C1CC1` [Compound 56, N-((S)-1,1-dicyclopropyl-3-((4-((1R,2S)-1-(1-(cyclopropylmethyl)-1H-1,2,4-triazol-5-yl)-1-(2-((1-methylazetidin-3-yl)oxy)acetamido)propan-2-yl)-2-fluorophenyl)amino)-3-oxopropan-2-yl)-4-methyl-1,2,5-oxadiazole-3-carboxamide], the IC50 in assay [1] is 0.145 µM; in assay [2], 0.078 µM; at IL-17AA and IL-17RA, 0.013 µM.

As to `[2H]C([2H])([2H])n1nccc1C(=O)N[C@H](C(=O)Nc1ccc([C@H](C)[C@@H](NC(=O)CO)c2ncnn2CC2CC2)cc1F)C(C1CC1)C1CC1` [Compound 69, N-((S)-1,1-dicyclopropyl-3-((4-((1R,2S)-1-(1-(cyclopropylmethyl)-1H-1,2,4-triazol-5-yl)-1-(2-hydroxyacetamido)propan-2-yl)-2-fluorophenyl)amino)-3-oxopropan-2-yl)-1-(methyl-d3)-1H-pyrazole-5-carboxamide], the IC50 was found to be 0.074 µM in assay [1]; 0.042 µM in assay [2]; 0.013 µM on IL-17AA and IL-17RA.

Regarding `COCC(=O)N[C@@H](c1nncn1CC1CC1)[C@@H](C)c1ccc(NC(=O)[C@@H](NC(=O)C2(F)CC2)C(C2CC2)C2CC2)c(F)c1` [Compound 11, N-((S)-1,1-dicyclopropyl-3-((4-((1R,2S)-1-(4-(cyclopropylmethyl)-4H-1,2,4-triazol-3-yl)-1-(2-methoxyacetamido)propan-2-yl)-2-fluorophenyl)amino)-3-oxopropan-2-yl)-1-fluorocyclopropane-1-carboxamide], the IC50 in assay [1] was 0.092 µM; in assay [2], 0.044 µM; at IL-17AA and IL-17RA, 0.013 µM.

As for `COCC(=O)N[C@@H](c1nncn1CC1CC1)[C@@H](C)c1ccc(NC(=O)[C@@H](NC(=O)COc2cc(C(F)F)ccn2)C(C2CC2)C2CC2)c(F)c1` [Compound 13, (S)-3,3-dicyclopropyl-N-(4-((1R,2S)-1-(4-(cyclopropylmethyl)-4H-1,2,4-triazol-3-yl)-1-(2-methoxyacetamido)propan-2-yl)-2-fluorophenyl)-2-(2-((4-(difluoromethyl)pyridin-2-yl)oxy)acetamido)propanamide], the IC50 in assay [1] was determined as 0.216 µM; in assay [2], 0.067 µM; at IL-17AA and IL-17RA it was 0.04 µM.

As for `[2H]C([2H])([2H])OCC(=O)N[C@@H](c1ncnn1CC1CC1)[C@@H](C)c1ccc(NC(=O)[C@@H](NC(=O)c2ccnn2C([2H])([2H])[2H])C(C2CC2)C2CC2)c(F)c1` [Compound 71, N-((S)-1,1-dicyclopropyl-3-((4-((1R,2S)-1-(1-(cyclopropylmethyl)-1H-1,2,4-triazol-5-yl)-1-(2-(methoxy-d3)acetamido)propan-2-yl)-2-fluorophenyl)amino)-3-oxopropan-2-yl)-1-(methyl-d3)-1H-pyrazole-5-carboxamide], the IC50 in assay [1] stood at 0.013 µM; in assay [2], 0.0096 µM; at IL-17AA and IL-17RA, 0.0053 µM.

As to `CCn1nccc1C(=O)N[C@H](C(=O)Nc1ccc([C@H](C)[C@@H](NC(=O)COC)c2nnc3cnccn23)cc1F)C(C1CC1)C1CC1` [Compound 88, N-((S)-1-((4-((1R,2S)-1-([1,2,4]triazolo[4,3-a]pyrazin-3-yl)-1-(2-methoxyacetamido)propan-2-yl)-2-fluorophenyl)amino)-3,3-dicyclopropyl-1-oxopropan-2-yl)-1-ethyl-1H-pyrazole-5-carboxamide], the IC50 in assay [1] came to 0.098 µM; in assay [2] it was 0.042 µM; on IL-17AA and IL-17RA it was 0.023 µM.

Regarding `CCn1nccc1C(=O)N[C@H](C(=O)Nc1ccc([C@H](C)[C@@H](NC(=O)[C@H](C)OC)c2nncn2CC2CC2)cc1F)C(C1CC1)C1CC1` [Compound 16, N-((S)-1,1-dicyclopropyl-3-((4-((1R,2S)-1-(4-(cyclopropylmethyl)-4H-1,2,4-triazol-3-yl)-1-((S)-2-methoxypropanamido)propan-2-yl)-2-fluorophenyl)amino)-3-oxopropan-2-yl)-1-ethyl-1H-pyrazole-5-carboxamide], the IC50 in assay [1] is 0.013 µM; in assay [2] it was 0.0063 µM; on IL-17AA and IL-17RA it was 0.0063 µM.
